In ChEMBL document CHEMBL3091441, “Ligand modifications to reduce the relative resistance of multi-drug resistant HIV-1 protease” (Bioorg Med Chem, 2013) one finds Ratio IC50 and IC50 data, which are given here for 4 compounds.

A word on the IC50: it is the concentration that gives 50% inhibition.

In test [1] the test system is Human immunodeficiency virus 1. As to the kind of experiment: Ratio of IC50 for HIV-1 multidrug-resistant protease 769 to IC50 for HIV-1 NL4-3 wild type protease.
Test [2] can be described thus: Inhibition of HIV-1 multidrug-resistant protease 769 preincubated for 20 mins by FRET analysis. More on the design: species or system Human immunodeficiency virus 1.
A further test deals with Protease (Human immunodeficiency virus 1, UniProt Q9YQ12). As to the kind of experiment: Inhibition of HIV-1 NL4-3 wild type protease expressed in Escherichia coli preincubated for 20 mins by FRET analysis.

The structures appear in SMILES notation. *1 amine or outer side, *2 acyl side, *3 side chain or, on linkers, in order; H or OH if unused. Where a SMILES comes first, the peptide text is derived from it. Side-chain parts run from the residue outwards. [ ]: non-standard residue; d: D form. N(2S-amino-4-Me-pentyl)Phe = CC(C)C[C@@H](CN([C@@H](Cc1ccccc1)C(=O)[*:2])[*:1])N[*:3]; N(2S-NH-3-Ph-propyl)Phe = O=C([C@H](Cc1ccccc1)N(C[C@H](Cc1ccccc1)N[*:3])[*:1])[*:2]; Nle = CCCC[C@H](N)C(=O)O

Sequence of Protease (Q9YQ12 whole entry): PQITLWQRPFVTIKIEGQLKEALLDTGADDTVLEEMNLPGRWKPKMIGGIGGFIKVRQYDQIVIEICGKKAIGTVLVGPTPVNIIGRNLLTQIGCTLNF

In the case of `Cc1cccc(C)c1OCC(=O)N[C@@H](Cc1ccccc1)[C@@H](O)C[C@H](CC(C)C)NC(=O)[C@H](C(C)C)N1CCCNC1=O`, the Ratio IC50 in test [1] stood at 3.2. For the same compound, the figures for the IC50 (in test [2]; against Protease) were 6.8 nM and 2.1 nM, respectively.

Turning to `CCCC[C@H](NC(=O)CNC(=O)[C@H](CCC(=O)O)NC(=O)[C@H](Cc1ccccc1)NC[C@H](CC(C)C)NC(=O)[C@@H](NC(=O)[C@@H](N)CCCNC(=N)N)C(C)C)C(=O)O` (H-[N(2S-amino-4-Me-pentyl)Phe]([Val-Arg])EG[Nle]-OH), in test [1], the Ratio IC50 is 1.7. Moreover, the values for the half-maximal inhibitory concentration (IC50) (in test [2]; against Protease) were 4.4 nM and 2.6 nM, respectively.

Regarding `CCCC[C@H](NC(=O)CNC(=O)[C@H](CCC(=O)O)NC(=O)[C@H](Cc1ccccc1)NC[C@H](Cc1ccccc1)NC(=O)[C@@H](NC(=O)[C@@H](N)CCCNC(=N)N)C(C)C)C(=O)O` (H-[N(2S-NH-3-Ph-propyl)Phe]([Val-Arg])EG[Nle]-OH), the Ratio IC50 in test [1] stood at 4.6. Moreover, the IC50 was 142 nM in test [2] and 30.7 nM against Protease.

As for `Cc1cccc(C)c1OCC(=O)N[C@@H](Cc1ccccc1)[C@@H](O)C[C@H](Cc1ccccc1)NC(=O)[C@H](C(C)C)N1CCCNC1=O` [LOPINAVIR], it took 16 nM to reach half-maximal inhibition in test [2] (IC50).
